This is an account of results in patent US10576145B2, “CD200 inhibitors and methods of use thereof” (REGENTS OF THE UNIVERSITY OF MINNESOTA, priority 2014, dated 2020).

The test system of experiment [1] is GL261 tumor bearing mice. As to the kind of experiment: GL261 glioma model: tumor lysate vaccine +/- antagonist, tumor growth by imaging and survival. The format is in vivo, C57BL/6 mice. Particulars: for Tumor growth: GL261, tumor lysate vaccine + antagonist vs tumor lysate alone or saline, weekly imaging; for Survival: GL261 glioma model, tumor lysate vaccine + antagonist. How it is done:
FIGS. 4A-4C. FIG. 4A) GL261 tumor bearing mice were inoculated with 50 μg of antagonist 6059 one day prior to vaccination with tumor lysate (65 μg)+/−the antagonist 6059 (50 μg). FIG. 4B) Mice were imaged weekly for tumor growth. The following groups were studied: saline (1), tumor lysate (2), and tumor lysate+6059 (3). FIG. 4C) Percent survival post inoculation for saline (1), tumor lysate (2), and tumor lysate+6059 (3) groups.
FIGS. 5A-5B. FIG. 5A) GL261 tumor bearing mice were inoculated with 10 μg of 6059 on day 2 into the tumor site then with 50 μg of antagonist 6059 one day prior to vaccination with tumor lysate (65 μg)+the antagonist 6059 (50 μg). FIG. 5B) Mice were imaged weekly for tumor growth. The following groups were studied: saline (1), tumor lysate+6059 (2), and CNS+tumor lysate+6059 (3) groups.
Whether vaccination with CD200R antagonists could enhance the survival of tumor-bearing mice was also studied. […] GL261 tumor bearing mice were vaccinated weekly with saline, tumor lysates (TL) or tumor lysates+an antagonist (4004, 4013, 6059).
Tumor-bearing mice were inoculated in the brain with 10 μg of the inhibitor 6059 at the same coordinates at which the tumor was injected two days previously. This was followed by weekly injections of tumor lysate+inhibitor (FIGS. 5A-5B).
(§1) Tumors were implanted into female C57BL/6 mice (6-8 wk old) (Jackson Laboratory) and maintained in a pathogen-free facility according to the guidelines of the University of Minnesota Animal Care and Use Committee. The GL261 orthotopic transplant model was established in C57BL/6 (B6) mice by inoculation with 15,000 GL261-Luc^+ cells in 1 μl of saline. Tumors were implanted stereotactically into the right striatum; coordinates were 2.5 mm lateral, 0.5 mm anterior of bregma, and 3 mm deep from the cortical surface of the brain^19. Tumor burden was determined by bioluminescent imaging. Light emitted from the tumors was quantified using Living Image software (Xenogen) and expressed as photons per second per centimeter squared per steradian (p/s/cm^2/sr). GL261 cells for tumor lysate vaccines were cultured in neural stem cell media consisting of DMEM/F12 (1:1) with L-glutamine, sodium bicarbonate, penicillin/streptomycin (100 U/ml), B27 and N2 supplements (Life Technologies), and 0.1 mg/ml Normocin (Invivogen). Cultures were maintained at 5% 02 and supplemented with 20 ng/ml EGF and FGF semiweekly (R&D Systems, Minneapolis, Minn.). […] Mice were euthanized when tumors reached 1000 mm^3. […] Tumor cells used to establish both models were cultured in DMEM containing 10% FBS, penicillin/streptomycin (100 U/ml), and 0.1 mg/ml Normocin (Invivogen) in atmospheric oxygen.
Tumor lysates were prepared by dissociating tumor cells with non-enzymatic dissociation solution (Sigma). Cells were then washed 3 times with PBS, re-suspended in 500 μL PBS, and frozen overnight at −80° C. Cells were then lysed by five freeze/thaw cycles of freezing in liquid nitrogen and thawing in a 55° C. water bath. Cell debris was pelleted by centrifugation at 14,000 RCF, and the protein concentration of the supernatant was determined using a Bradford assay. Lysates were stored at −80° C. until use. Each vaccine was prepared on the day of vaccination and consisted of 65 μg of protein tumor lysate and 10 μg Poly:ICLC (Oncovir, Inc.), with or without 50 μg of the 6059 peptide antagonist, in a final volume of 100 μL injected intradermally in the back of the neck. For survival studies, vaccines were administered weekly starting three days post-tumor implantation for a total of 6 doses. In T cell priming experiments, CD8 T-cell priming experiments, animals were vaccinated intradermally on four consecutive days with 100 μg Ovalbumin (OVA) and 10 μg Poly:ICLC, and once more on day eleven^19.

The subject of experiment [2] is EMT6 tumor bearing mice. As to the kind of experiment: EMT6 breast carcinoma model: tumor lysate + CpG +/- competitive inhibitor, survival. The format is in vivo, BALB/c mice. The protocol:
FIG. 6. Percent survival of mice inoculated with 1×10^6 EMT6 cells. To determine if our competitive inhibitors worked in other tumor models, mice were inoculated in the fat pad with 1×10^6 EMT6 cells. Specifically, mice were vaccinated with 65 μg of EMT6 tumor lysates+50 μg of adjuvant CpG and 50 μg of different completive inhibitors (6059, 4004, 4013 and 6061) and monitored for survival. Saline and tumor lysate+adjuvant CpG were used as controls.
FIGS. 19A-19B. Select CD200 antagonists enhance survival. (FIG. 19A) EMT6 tumor bearing mice were vaccinated with tumor lysate, CpG+/−CD200 antagonist 4004, 4013 or 6059. […] Log-rank analysis was used for survival.
as §1

The subject of experiment [3] is splenocytes. As to the kind of experiment: Splenocytes pulsed with OVA + antagonist, OT-1 T cells added, cytokine production by flow cytometric bead array. The note with it: pulsed 24 hours, 48 hours with OT-1 T cells. The format is cell-based. The protocol: FIGS. 11A-11B. Splenocytes were pulsed with OVA+an inhibitor peptide and incubated for 24 h. Following incubation, cells were washed, purified OT1 were added to wells and incubated for an additional 48 hrs then analyzed for FIG. 11A) TNFa and IL-6 production; and FIG. 11B) IL-2 and IL-17 production. Error bars indicate +/−SEM (n=4/group; *P<0.05; ** P<0.01).
Whether the different antagonists described by Gorczynski et. al. (J Surg Res 2008; 145(1): 87-96) could modulate or reverse the suppressive effects of the tumor microenvironment was also investigated. It was concluded that different antagonists either act through different CD200R isoforms or have different biological effects on the same receptor. These conclusions were supported by experiments where splenocytes were pulsed with OVA+selected CD200R antagonists (6061, 6069, 4004, 4006, 4013) for 24 hours. The splenocytes were then washed and cultured for 48 hours with the addition of OT-1 T cells. The cultures were then assessed for cytokine production using a flow cytometric bead array. […] These experiments support the hypothesis that exosomes express the CD200 protein thereby inhibiting the ability to prime a T cell response in the draining lymph nodes of glioma bearing mice. Other antagonists were similarly evaluated.
A general note: Flow cytometry measures light scatter and fluorescence of single cells or particles in a stream.

Experiment [4] has as its system mice. As to the kind of experiment: MDSC expansion in blood of mice vaccinated with tumor lysate + CpG +/- inhibitor. The format is in vivo. The note with it: tumor lysate+CpG+inhibitor vs tumor lysate+CpG, listed as P1A12. The protocol:
FIG. 23. […] Mice were vaccinated as described in FIG. 4 with peptide inhibitor P1A12. Blood from mice vaccinated with tumor lysate+CpG or tumor lysate+CpG+inhibitor were analyzed for MDSC expansion.
(§2) Mice were vaccinated as described in FIGS. 4A-4C with peptide inhibitor P1A12. Blood from mice vaccinated with tumor lysate+CpG or tumor lysate+CpG+inhibitor were analyzed for MDSC expansion (FIG. 23). […] CD11b cells isolated for wild type or CD200 receptor knock out mice were pulsed with OVA+Poly:ICLC+/−P1A12 inhibitor, and scrambled inhibitor was used as a control (FIG. 24). Cells were washed and OT-I Cells were added. Supernatants were analyzed for IFN gamma following 48 hour incubation.

In experiment [5] the test system is CD200 receptor. As to the kind of experiment: CD11b cells of wild type or CD200 receptor knock out mice pulsed with OVA+Poly:ICLC +/- P1A12, OT-I cells added, IFN gamma. The format is cell-based. Particulars: wild type vs CD200 receptor knock out CD11b cells, 48 hour incubation; listed as P1A12. How it is done:
FIG. 24. […] CD11b cells isolated for wild type or CD200 receptor knock out mice were pulsed with OVA+Poly:ICLC+/−P1A12 inhibitor. Scrambled inhibitor was use as a control. Cells were washed and OT-I Cells were added. A. Supernatants were analyzed for IFN gamma following 48 hour incubation.
as §2

“Also recorded” adds a separate entry of the source.

Regarding LFNTFGSQKVSGT [Antagonist 4013], in experiment [1], the Tumor growth result is reported as “tumors grow faster in mice vaccinated with saline or tumor lysate alone compared to mice vaccinated with tumor lysate plus an antagonist”. Besides, the Survival result in experiment [2] is “results translated to a breast carcinoma (EMT6) model; also recorded: enhanced survival benefit; also recorded: significantly extended survival benefit”.

Regarding TASLRCSLKTSQE [Antagonist 4004], the Tumor growth entry in experiment [1] was “tumors grow faster in mice vaccinated with saline or tumor lysate alone compared to mice vaccinated with tumor lysate plus an antagonist”. The Survival result in experiment [2] is “results translated to a breast carcinoma (EMT6) model; also recorded: enhanced survival benefit; also recorded: significantly extended survival benefit”. In addition, the “Cytokine profile (TNFa, IL-6, IL-2, IL-17)” value in experiment [3] is “different cytokine profiles”.

Turning to SQKVSGTACLTLY [Antagonist 4006], the “Cytokine profile (TNFa, IL-6, IL-2, IL-17)” value in experiment [3] was “different cytokine profiles”.

As for RCSLKTSQE [Antagonist 6061], in experiment [2], the Survival entry is listed as “significantly extended survival benefit”.

As to VTWQKKKAVSPANM [Antagonist C-A12], the Survival entry was “even greater survival” in experiment [1] and “enhances survival” in experiment [1] (listed as P1-A12). In experiment [4], the “MDSC expansion in vivo” value was “inhibits MDSC expansion in vivo”. In experiment [5], the “Action on the CD200 receptor (IFN gamma in supernatants)” value was “acts as an agonist for the CD200 receptor”.
